Reference: ChEMBL document CHEMBL2380304, “Synthesis of 2-methoxybenzoylhydrazone and evaluation of their antileishmanial activity” (Bioorg Med Chem Lett, 2013)

system: Leishmania major; experiment: Antileishmanial activity against promastigotes of Leishmania major after 72 hrs by Neubauer counting chamber-based microscopic analysis; type: functional, organism-based

SMILES	IC50 [µM]
COc1ccccc1C(=O)N/N=C/c1ccccn1	60
COc1ccccc1C(=O)N/N=C/c1ccncc1	75.9
COC(=O)c1ccc(/C=N/NC(=O)c2ccccc2OC)cc1	15.7
COc1ccccc1C(=O)N/N=C/c1ccc(Br)c(F)c1	77.4
COc1ccccc1C(=O)N/N=C/c1cc(O)c(O)c(O)c1	31.5
COc1ccccc1C(=O)N/N=C/c1ccc(O)c(O)c1	3.29
COc1ccc(/C=N/NC(=O)c2ccccc2OC)cc1Br	7.64
COc1ccc(/C=N/NC(=O)c2ccccc2OC)cc1OC	13.2
COc1ccc(/C=N/NC(=O)c2ccccc2OC)cc1	40.1
COc1ccccc1C(=O)N/N=C/c1cccnc1	1.95
COc1ccccc1C(=O)N/N=C/c1cccs1	2.49
COc1ccccc1C(=O)N/N=C/c1ccc([N+](=O)[O-])cc1	31.6
COc1ccccc1C(=O)N/N=C/c1ccc(Cl)cc1	68.5
COc1ccccc1C(=O)N/N=C/c1cccc(O)c1O	68
COc1ccccc1C(=O)N/N=C/c1cc(O)ccc1O	34.9
COc1ccccc1C(=O)N/N=C/c1ccc(O)cc1O	88.6
COc1ccccc1C(=O)N/N=C/c1ccc(O)cc1	57.4
COc1ccc(/C=N/NC(=O)c2ccccc2OC)c(O)c1	13.2
COc1ccc(/C=N/NC(=O)c2ccccc2OC)cc1O	45.7
COc1ccccc1C(=O)N/N=C/c1ccc(OC)c(O)c1I	63.4
COc1cc(/C=N/NC(=O)c2ccccc2OC)cc(OC)c1	53.1
N=C(N)c1ccc(OCCCCCOc2ccc(C(=N)N)cc2)cc1 [PENTAMIDINE]	5.09
